Test system: SEM cells
Assay: cell viability relative to DMSO control; higher = less cytotoxic
Settings: 48 h
Method in brief: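 Viability, reported as a per-plate percentage of DMSO wells with cell-free wells as background, came from CellTiter-Glo One luminescence. Reading took place after 48 h at 37°C. Before that, NOMO1 or SEM (500 cells/well) or P12-Ichikawa (1000 cells/well) leukemia cells, adapted for at least four passages in each medium, were seeded in 1536-well plates (5 μl) and pin-dosed with library compounds in DMSO, 47 μM to 0.79 nM over 11 threefold points.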

[1] = HPLM + 10% dialyzed FBS, 0.000781 µM
[2] = HPLM + 10% dialyzed FBS, 0.00234 µM
[3] = HPLM + 10% dialyzed FBS, 0.00702 µM
[4] = HPLM + 10% dialyzed FBS, 0.0211 µM
[5] = HPLM + 10% dialyzed FBS, 0.0632 µM
[6] = HPLM + 10% dialyzed FBS, 0.19 µM
[7] = HPLM + 10% dialyzed FBS, 0.569 µM
[8] = HPLM + 10% dialyzed FBS, 1.71 µM
[9] = HPLM + 10% dialyzed FBS, 5.12 µM
[10] = HPLM + 10% dialyzed FBS, 15.4 µM
[11] = HPLM + 10% dialyzed FBS, 46.1 µM
[12] = RPMI 5 mM glucose + 10% FBS, 0.000781 µM
[13] = RPMI 5 mM glucose + 10% FBS, 0.00234 µM
[14] = RPMI 5 mM glucose + 10% FBS, 0.00702 µM
[15] = RPMI 5 mM glucose + 10% FBS, 0.0211 µM
[16] = RPMI 5 mM glucose + 10% FBS, 0.0632 µM
[17] = RPMI 5 mM glucose + 10% FBS, 0.19 µM
[18] = RPMI 5 mM glucose + 10% FBS, 0.569 µM
[19] = RPMI 5 mM glucose + 10% FBS, 1.71 µM
[20] = RPMI 5 mM glucose + 10% FBS, 5.12 µM
[21] = RPMI 5 mM glucose + 10% FBS, 15.4 µM
[22] = RPMI 5 mM glucose + 10% FBS, 46.1 µM
[23] = RPMI 5 mM glucose + 10% dialyzed FBS, 0.000781 µM
[24] = RPMI 5 mM glucose + 10% dialyzed FBS, 0.00234 µM
[25] = RPMI 5 mM glucose + 10% dialyzed FBS, 0.00702 µM
[26] = RPMI 5 mM glucose + 10% dialyzed FBS, 0.0211 µM
[27] = RPMI 5 mM glucose + 10% dialyzed FBS, 0.0632 µM
[28] = RPMI 5 mM glucose + 10% dialyzed FBS, 0.19 µM
[29] = RPMI 5 mM glucose + 10% dialyzed FBS, 0.569 µM
[30] = RPMI 5 mM glucose + 10% dialyzed FBS, 1.71 µM
[31] = RPMI 5 mM glucose + 10% dialyzed FBS, 5.12 µM
[32] = RPMI 5 mM glucose + 10% dialyzed FBS, 15.4 µM
[33] = RPMI 5 mM glucose + 10% dialyzed FBS, 46.1 µM

| Compound | cell viability [1] [%] | cell viability [2] [%] | cell viability [3] [%] | cell viability [4] [%] | cell viability [5] [%] | cell viability [6] [%] | cell viability [7] [%] | cell viability [8] [%] | cell viability [9] [%] | cell viability [10] [%] | cell viability [11] [%] | cell viability [12] [%] | cell viability [13] [%] | cell viability [14] [%] | cell viability [15] [%] | cell viability [16] [%] | cell viability [17] [%] | cell viability [18] [%] | cell viability [19] [%] | cell viability [20] [%] | cell viability [21] [%] | cell viability [22] [%] | cell viability [23] [%] | cell viability [24] [%] | cell viability [25] [%] | cell viability [26] [%] | cell viability [27] [%] | cell viability [28] [%] | cell viability [29] [%] | cell viability [30] [%] | cell viability [31] [%] | cell viability [32] [%] | cell viability [33] [%] |
| --- | --- | --- | --- | --- | --- | --- | --- | --- | --- | --- | --- | --- | --- | --- | --- | --- | --- | --- | --- | --- | --- | --- | --- | --- | --- | --- | --- | --- | --- | --- | --- | --- | --- |
| CC[C@H]1/C=C\C=C/C[C@@H](C)[C@H](O)[C@@](C)(O)C(=O)[C@@H](C)[C@H](O)[C@@H](C)C(=O)[C@@H](C)[C@H](O)[C@@H](C)/C=C/C(=O)O[C@@H]2[C@H](C)[C@H](CC1)O[C@]1(CC[C@H](C)[C@H](C[C@@H](C)O)O1)[C@H]2C | 78.7 | 94.1 | 105 | 84.3 | 86.4 | 98.6 | 95.5 | 63.4 | 40.9 | 56.5 | 7.57 | 81.1 | 93.9 | 92.5 | 81.2 | 90.3 | 105 | 97.7 | 58.2 | 28.8 | 34.6 | 7.26 | 90.9 | 97 | 89 | 97.4 | 85.8 | 94.2 | 100 | 54.7 | 43.2 | 36.4 | 8.78 |
| O=C(CO)N1CCC(c2n[nH]c(-c3ccc(Cl)cc3)c2-c2ccncn2)CC1 | 102 | 119 | 119 | 112 | 110 | 104 | 98.7 | 101 | 75.6 | 64.9 | 31 | 114 | 128 | 123 | 127 | 107 | 123 | 109 | 106 | 85.3 | 49.4 | 16 | 131 | 108 | 108 | 141 | 110 | 119 | 128 | 100 | 79.7 | 51.5 | 20.1 |
| Cc1ncc(OC[C@@]2(c3cccc(F)c3)C[C@H]2C(=O)Nc2ccc(F)cn2)c(C)n1 | 75.3 | 84.5 | 97.6 | 96 | 95.3 | 91.7 | 105 | 96 | 98.3 | 98.7 | 78.3 | 113 | 111 | 102 | 104 | 103 | 133 | 136 | 51.1 | 97.3 | 88.4 | 104 | 85.3 | 107 | 98.1 | 90.8 | 100 | 104 | 108 | 118 | 122 | 108 | 82.6 |
| CC(C)(C)C(=O)Oc1ccc([S+](=O)([O-])Nc2ccccc2C(=O)NCC(=O)O)cc1 | 107 | 106 | 111 | 109 | 116 | 122 | 74.3 | 58.9 | 123 | 128 | 124 | 95.5 | 93.9 | 88.9 | 92.8 | 104 | 107 | 95.1 | 48.8 | 91.6 | 96.7 | 90.4 | 106 | 99.3 | 104 | 123 | 94.6 | 116 | 93.7 | 50.6 | 98.8 | 109 | 124 |
| Cc1cc(Nc2nc(N[C@@H](C)c3ncc(F)cn3)ncc2Cl)n[nH]1 | 93 | 97.4 | 109 | 114 | 103 | 106 | 102 | 99.4 | 61.2 | 21.7 | 19.4 | 120 | 129 | 114 | 110 | 112 | 126 | 110 | 26.2 | 19 | 17.1 | 20.3 |  |  |  |  |  |  |  |  |  |  |  |
| CN(C/C=C/C#CC(C)(C)C)Cc1cccc2ccccc12 | 81.5 | 84.7 | 93 | 92.4 | 96.3 | 101 | 114 | 94 | 107 | 100 | 98.3 | 72.2 | 99.6 | 86.7 | 94.2 | 93.3 | 101 | 105 | 105 | 95 | 76.5 | 99.4 | 81 | 90.4 | 85.9 | 98.9 | 110 | 95.6 | 96.6 | 104 | 117 | 104 | 95 |
| C1CCC(C(CC2CCCCN2)C2CCCCC2)CC1 (configuration not stated) | 82.6 | 92.2 | 94.9 | 98.3 | 104 | 110 | 93.5 | 96.9 | 118 | 54.1 | 7.7 | 94.4 | 122 | 93 | 113 | 116 | 117 | 110 | 112 | 111 | 45.1 | 19.6 | 85.7 | 93.9 | 91.7 | 85.5 | 100 | 86.6 | 96.8 | 110 | 89.9 | 37.7 | 34 |
| Oc1ccc(/C=C/c2cc(O)cc(O)c2)cc1 | 99.5 | 113 | 106 | 104 | 115 | 110 | 112 | 121 | 118 | 97.6 | 10.4 | 105 | 107 | 85.6 | 100 | 103 | 108 | 111 | 94.9 | 101 | 22.7 | 5.07 | 114 | 115 | 97.2 | 98.4 | 100 | 92.8 | 103 | 103 | 111 | 73.7 | 7.98 |
| CC1(C)CCC(=C(CN2CCN(CC2)C3=CC=C(C=C3)C(=O)N[S+]([O-])(=O)C4=CC(=C(N[C@H](CCN5CCOCC5)CSC6=CC=CC=C6)C=C4)[S+]([O-])(=O)C(F)(F)F)\C1)/C7=CC=C(Cl)C=C7 | 124 | 124 | 126 | 106 | 80.9 | 18.3 | 11.3 | 8.83 | 8.56 | 7.32 | 5.38 | 85.5 | 108 | 95.9 | 82.8 | 42.1 | 19.6 | 8.77 | 6.49 | 5.65 | 5.78 | 4.31 | 111 | 135 | 100 | 102 | 49.6 | 21 | 9.94 | 6.79 | 6.8 | 5.99 | 4.42 |
| CC(C)[C@@H](C[S+](=O)([O-])C(C)C)N1C(=O)[C@@](C)(CC(=O)O)C[C@H](c2cccc(Cl)c2)[C@H]1c1ccc(Cl)cc1 | 124 | 107 | 125 | 117 | 115 | 106 | 85.9 | 77.1 | 54.3 | 31.8 | 18.7 |  |  |  |  |  |  |  |  |  |  |  | 127 | 109 | 121 | 110 | 128 | 113 | 100 | 70.9 | 47.8 | 26.5 | 18.5 |
| COc1cc(Nc2ncc(F)c(Nc3ccc4c(n3)NC(=O)C(C)(C)O4)n2)cc(OC)c1OC | 87.1 | 99 | 106 | 123 | 106 | 103 | 95.8 | 57.7 | 6.83 | 4.48 | 4.63 | 57.5 | 73 | 70.6 | 70.4 | 68.4 | 70.6 | 55 | 34.9 | 3.27 | 3.07 | 3.1 | 95 | 111 | 101 | 95.2 | 89.8 | 104 | 91.2 | 49.4 | 9.48 | 3.83 | 4.35 |
| CC1(C)C(=O)N(CCN2CCC(C(=O)c3ccc(F)cc3)CC2)c2ccccc21 | 92.5 | 111 | 113 | 111 | 119 | 119 | 119 | 113 | 103 | 98.7 | 101 | 102 | 121 | 115 | 115 | 105 | 117 | 115 | 100 | 89.7 | 107 | 94.2 | 111 | 109 | 105 | 134 | 116 | 115 | 117 | 124 | 111 | 114 | 101 |
| ClC1=CC(=CC=C1)N2CCN(CCCN3\N=C4\C=C/C=C\N4C3=O)CC2 | 79.3 | 107 | 107 | 112 | 121 | 130 | 127 | 131 | 140 | 131 | 145 | 117 | 126 | 123 | 138 | 140 | 138 | 146 | 157 | 150 | 165 | 127 |  |  |  |  |  |  |  |  |  |  |  |
| CCOc1cc(N)c(Cl)cc1C(=O)NCC1CN(Cc2ccc(F)cc2)CCO1 (configuration not stated) | 85.4 | 110 | 104 | 100 | 109 | 112 | 128 | 114 | 118 | 119 | 132 | 99.8 | 113 | 107 | 116 | 114 | 114 | 95.5 | 115 | 109 | 94.7 | 90.3 | 113 | 110 | 100 | 109 | 119 | 122 | 112 | 115 | 105 | 104 | 92.5 |
| CC(C)(C)c1cc(C=C(C#N)C#N)cc(Br)c1O | 87 | 109 | 42.3 | 114 | 111 | 109 | 114 | 110 | 111 | 108 | 104 | 65.4 | 72.7 | 11.9 | 67.3 | 90.6 | 81.4 | 83.8 | 77.4 | 71.5 | 77.7 | 77.5 | 87.3 | 98.8 | 35.7 | 111 | 108 | 123 | 119 | 107 | 105 | 115 | 90.7 |

Reference: the supplement of paper PMC11451515
